Measurements as given in PubChem BioAssay AID330 (DTP/NCI, 2004).
Values joined by “and” are separate entries in the source; they are usually repeats but may differ in a detail not shown here. Equal values may be shown once. Toxic doses and inconclusive results are not listed. How the source made its calls: active means survival T/C of 150% or more; inactive means T/C below 125% in these data.

Tested on: P388 leukemia ip, CD2F1 mice, survival T/C
Experiment: NCI In Vivo Anticancer Drug Screen. Data for tumor model P388 Leukemia (intraperitoneal) in CD2F1 (CDF1) mice
Conditions: endpoint: median survival time, higher = longer survival
Outline: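 Mice carrying the transplanted tumor received test compound or vehicle. Survival was recorded in each group, and the value is the treated-group measurement divided by that of the vehicle-treated control group.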

[1] = dose: 25.0 mg/kg/injection, schedule: Q01DX009 (ip), vehicle: saline with Tween-80
[2] = dose: 50.0 mg/kg/injection, schedule: Q01DX009 (ip), vehicle: saline with Tween-80
[3] = dose: 100.0 mg/kg/injection, schedule: Q01DX009 (ip), vehicle: saline with Tween-80
[4] = dose: 50.0 mg/kg/injection, schedule: Q01DX005 (ip), vehicle: saline with Tween-80
[5] = dose: 6.25 mg/kg/injection, schedule: Q01DX009 (ip), vehicle: saline with Tween-80

Measured: T/C

CCCCCCC1(/C=C/c2ccc(Cl)c(Cl)c2)SCCS1
inactive: dose: 12.0 mg/kg/injection, schedule: Q01DX009 (ip), vehicle: saline with Tween-80 100 % of control | dose: 12.5 mg/kg/injection, schedule: Q01DX009 (ip), vehicle: saline 105 % of control | [1] 107 % of control | dose: 25.0 mg/kg/injection, schedule: Q01DX009 (ip), vehicle: saline 102 % of control | [2] 104 % of control | [3] 100 % of control | dose: 100.0 mg/kg/injection, schedule: Q01DX009 (ip), vehicle: saline 102 % of control and 90 % of control

COC(=O)C1(C)N=NN=C1N(C)C (stereo not drawn)
inactive: dose: 100.0 mg/kg/injection, schedule: Q04DX002 (ip), vehicle: saline 101 % of control | dose: 200.0 mg/kg/injection, schedule: Q04DX002 (ip), vehicle: saline 100 % of control | dose: 400.0 mg/kg/injection, schedule: Q04DX002 (ip), vehicle: saline 101 % of control

COC(=O)Nc1nc2ccc(C(O)(c3ccccc3)c3cccs3)cc2[nH]1 (stereo not drawn)
inactive: dose: 25.0 mg/kg/injection, schedule: Q01DX005 (ip), vehicle: saline with Tween-80 95 % of control | [4] 95 % of control | dose: 100.0 mg/kg/injection, schedule: Q01DX005 (ip), vehicle: saline with Tween-80 99 % of control

BrCCN(CCBr)c1ccc2c3c(cccc13)-c1ccccc1-2
active: dose: 4.0 mg/kg/injection, schedule: Q01DX009 (ip), vehicle: saline with Tween-80 160 % of control and 163 % of control | dose: 6.0 mg/kg/injection, schedule: Q01DX009 (ip), vehicle: saline with Tween-80 178 % of control | [5] 154 % of control
inactive: dose: 9.0 mg/kg/injection, schedule: Q01DX009 (ip), vehicle: saline with Tween-80 117 % of control | dose: 100.0 mg/kg/injection, schedule: Q04DX003 (ip), vehicle: saline with Tween-80 104 % of control | dose: 200.0 mg/kg/injection, schedule: Q04DX003 (ip), vehicle: saline with Tween-80 104 % of control

CN1c2ccccc2SC12C(=S)N(c1ccccc1)C(=S)N2c1ccccc1 (stereo not drawn)
inactive: dose: 100.0 mg/kg/injection, schedule: Q04DX002 (ip), vehicle: saline with Tween-80 98 % of control | dose: 200.0 mg/kg/injection, schedule: Q04DX002 (ip), vehicle: saline with Tween-80 90 % of control | dose: 400.0 mg/kg/injection, schedule: Q04DX002 (ip), vehicle: saline with Tween-80 86 % of control

CN1c2ccccc2C2=C(C3=C(CS2)C(=O)CCS3)S1(=O)=O
inactive: dose: 100.0 mg/kg/injection, schedule: Q01DX001 (ip), vehicle: saline with Tween-80 100 % of control | dose: 200.0 mg/kg/injection, schedule: Q01DX001 (ip), vehicle: saline with Tween-80 99 % of control | dose: 400.0 mg/kg/injection, schedule: Q01DX001 (ip), vehicle: saline with Tween-80 100 % of control

COC(=O)C(CCl)NC(C)=O (stereo not drawn)
inactive: dose: 50.0 mg/kg/injection, schedule: Q01DX005 (ip), vehicle: saline 97 % of control | dose: 100.0 mg/kg/injection, schedule: Q01DX005 (ip), vehicle: saline 100 % of control | dose: 200.0 mg/kg/injection, schedule: Q01DX005 (ip), vehicle: saline 101 % of control

O=C(CCCN1CCC(C(O)c2ccc(F)cc2)CC1)c1ccc(F)cc1 (stereo not drawn)
inactive: dose: 3.0 mg/kg/injection, schedule: Q01DX005 (ip), vehicle: saline with Tween-80 101 % of control | dose: 3.13 mg/kg/injection, schedule: Q01DX009 (ip), vehicle: saline with Tween-80 98 % of control | dose: 6.0 mg/kg/injection, schedule: Q01DX005 (ip), vehicle: saline with Tween-80 104 % of control | [5] 92 % of control | dose: 12.0 mg/kg/injection, schedule: Q01DX005 (ip), vehicle: saline with Tween-80 98 % of control | dose: 12.5 mg/kg/injection, schedule: Q01DX009 (ip), vehicle: saline with Tween-80 103 % of control | [1] 107 % of control | [4] 114 % of control | [2] 100 % of control | [3] 95 % of control

COc1cc2c(cc1OC)/C(=N/N)CCC2
inactive: dose: 3.13 mg/kg/injection, schedule: Q01DX009 (ip), vehicle: water 100 % of control | dose: 6.25 mg/kg/injection, schedule: Q01DX009 (ip), vehicle: water 100 % of control | dose: 12.5 mg/kg/injection, schedule: Q01DX009 (ip), vehicle: water 95 % of control | dose: 25.0 mg/kg/injection, schedule: Q01DX009 (ip), vehicle: water 91 % of control | dose: 50.0 mg/kg/injection, schedule: Q01DX009 (ip), vehicle: water 91 % of control
